Patent US11807644B2 (PMV Pharmaceuticals, Inc., priority 2020, dated 2023)

Biological target: T1, recombinant His-tag Y220C p53 DBD protein (Homo sapiens, UniProt P04637, Y220C)
T1 construct: recombinant His-tag Y220C p53 DBD protein (amino acids #˜94-312)
Experiment: In vitro DNA binding activity assay (TR-FRET): binding of His-tag Y220C p53 DBD to biotin-labeled consensus DNA
Format: biochemical
Conditions: SC150 = concentration to increase DNA binding by […], His-tag Y220C p53 DBD, biotin-labeled consensus DNA

SMILES	Y220C SC150 (μM)
COCC(C)n1ccc(C(=O)NCc2nc(-c3cc4c(N[C@@H]5CCN(C(C)(C)C)C[C@H]5F)cccc4n3CC(F)(F)F)no2)c1 (mixture of isomers) [Compound 358B, rac-N-{[3-(4-{1[(3R,4R)-1-tert-butyl-3-fluoropiperidin-4-yl]amino}-1-(2,2,2-trifluoroethyl)-1H-indol-2-yl)-1,2,4-oxadiazol-5-yl]methyl}-1-(1-methoxypropan-2-yl)-1H-pyrrole-3-carboxamide]	* (* = 0 μM ≤ SC150 < 0.1 μM)
CO[C@@H]1CCC[C@@H]1n1cc(C(=O)NCc2nc(-c3cc4c(N[C@@H]5CCN(C)C[C@@H]5F)cccc4n3CC(F)(F)F)no2)cn1 (racemic) [Compound 370B]	* (* = 0 μM ≤ SC150 < 0.1 μM)
CC(C)(C)n1ccc(C(=O)NCc2nc(-c3cc4c(N[C@@H]5CNCC[C@@H]5F)cccc4n3CC(F)(F)F)no2)c1 (racemic) [Compound 382B, rac-1-tert-butyl-N-{[3-(4-{[(3R,4S)-4-fluoropiperidin-3-yl]amino}-1-(2,2,2-trifluoroethyl)-1H-indol-2-yl)-1,2,4-oxadiazol-5-yl]methyl}-1H-pyrrole-3-carboxamide]	* (* = 0 μM ≤ SC150 < 0.1 μM)
CO[C@]1(C)CC[C@H](n2ccc(C(=O)NCc3nc(-c4cc5c(N[C@@H]6CCN(C)C[C@@H]6F)cccc5n4CC(F)(F)F)no3)c2)C1 (racemic) [Compound 387B, cis-N-{[3-(4-{[(3S,4R)-3-fluoro-1-methylpiperidin-4-yl]amino}-1-(2,2,2-trifluoroethyl)-1H-indol-2-yl)-1,2,4-oxadiazol-5-yl]methyl}-1-[(1R,3S)-3-methoxy-3-methylcyclopentyl]-1H-pyrrole-3-carboxamide]	* (* = 0 μM ≤ SC150 < 0.1 μM)
CO[C@H]1CCC[C@@H]1n1ccc(C(=O)NCc2nc(-c3cc4c(N[C@@H]5CCN(C)C[C@@H]5F)cccc4n3CC(F)(F)F)no2)c1 (relative stereo) [Compound 355B]	* (* = 0 μM ≤ SC150 < 0.1 μM)
CO[C@H]1CCCC[C@@H]1n1cc(C(=O)NCc2nc(-c3cc4c(N[C@@H]5CCN(C)C[C@@H]5F)cccc4n3CC(F)(F)F)no2)cn1 (relative stereo) [Compound 385B]	* (* = 0 μM ≤ SC150 < 0.1 μM)
CN1CC[C@@H](Nc2cccc3c2cc(-c2noc(CNC(=O)c4cnn([C@H]5CCC[C@@H]5F)c4)n2)n3CC(F)(F)F)[C@@H](F)C1 (relative stereo) [Compound 395B]	* (* = 0 μM ≤ SC150 < 0.1 μM)
COC1CCCC1n1cc(C(=O)NCc2nc(-c3cc4c(N[C@@H]5CCN(C)C[C@@H]5F)cccc4n3CC(F)(F)F)no2)cn1 (stereo in doubt) [Compound 348B, N-{[3-(4-{[(3S,4R)-3-fluoro-1-methylpiperidin-4-yl]amino}-1-(2,2,2-trifluoroethyl)-1H-indol-2-yl)-1,2,4-oxadiazol-5-yl]methyl}-1-[(1R,2R)-2-methoxycyclopentyl]-1H-pyrazole-4-carboxamide]	* (* = 0 μM ≤ SC150 < 0.1 μM)
COC1CCC(n2ccc(C(=O)NCc3nc(-c4cc5c(N[C@@H]6CCN(C)C[C@@H]6F)cccc5n4CC(F)(F)F)no3)c2)C1 (stereo in doubt) [Compound 359B, N-{[3-(4-{[(3S,4R)-3-fluoro-1-methylpiperidin-4-yl]amino}-1-(2,2,2-trifluoroethyl)-1H-indol-2-yl)-1,2,4-oxadiazol-5-yl]methyl)-1-[(1R,3S)-3-methoxycyclopentyl]-1H-pyrrole-3-carboxamide]	* (* = 0 μM ≤ SC150 < 0.1 μM)
COC1CCC(n2ccc(C(=O)NCc3nc(-c4cc5c(N[C@@H]6CCN(C)C[C@@H]6F)cccc5n4CC(F)(F)F)no3)c2)C1 (stereo in doubt) [Compound 360B, N-{[3-(4-{[(3S,4R)-3-fluoro-1-methylpiperidin-4-yl]amino}-1-(2,2,2-trifluoroethyl)-1H-indol-2-yl)-1,2,4-oxadiazol-5-yl]methyl}-1-[(1R,3R)-3-methoxycyclopentyl]-1H-pyrrole-3-carboxamide]	* (* = 0 μM ≤ SC150 < 0.1 μM)
CN1CC[C@@H](Nc2cccc3c2cc(-c2noc(CNC(=O)c4ccn(C5CCC(N(C)C)C5)c4)n2)n3CC(F)(F)F)[C@@H](F)C1 (stereo in doubt) [Compound 361B, 1-[(1R,3R)-3-(dimethylamino)cyclopentyl]-N-{[3-(4-{[(3S,4R)-3-fluoro-1-methylpiperidin-4-yl]amino}-1-(2,2,2-trifluoroethyl)-1H-indol-2-yl)-1,2,4-oxadiazol-5-yl]methyl}-1H-pyrrole-3-carboxamide]	* (* = 0 μM ≤ SC150 < 0.1 μM)
CN1CC[C@@H](Nc2cccc3c2cc(-c2noc(CNC(=O)c4ccn([C@H]5CC[C@](C)(O)C5)c4)n2)n3CC(F)(F)F)[C@@H](F)C1 (stereo in doubt) [Compound 373B, Trans-N-{[3-(4-{[(3S,4R)-3-fluoro-1-methylpiperidin-4-yl]amino}-1-(2,2,2-trifluoroethyl)-1H-indol-2-yl)-1,2,4-oxadiazol-5-yl]methyl}-1-[(1R,3R)-3-hydroxy-3-methylcyclopentyl]-1H-pyrrole-3-carboxamide]	* (* = 0 μM ≤ SC150 < 0.1 μM)
CN1CC[C@@H](Nc2cccc3c2cc(-c2noc(CNC(=O)c4ccn([C@H]5CC[C@@](C)(O)C5)c4)n2)n3CC(F)(F)F)[C@@H](F)C1 (stereo in doubt) [Compound 374B, Cis-N-{[3-(4-{[(3S,4R)-3-fluoro-1-methylpiperidin-4-yl]amino}-1-(2,2,2-trifluoroethyl)-1H-indol-2-yl)-1,2,4-oxadiazol-5-yl]methyl}-1-[(1R,3S)-3-hydroxy-3-methylcyclopentyl]-1H-pyrrole-3-carboxamide]	* (* = 0 μM ≤ SC150 < 0.1 μM)
CCOC1CCCC1n1cc(C(=O)NCc2nc(-c3cc4c(N[C@@H]5CCN(C)C[C@@H]5F)cccc4n3CC(F)(F)F)no2)cn1 (stereo in doubt) [Compound 375B, 1-[(1R,2R)-2-ethoxycyclopentyl]-N-{[3-(4-{[(3S,4R)-3-fluoro-1-methylpiperidin-4-yl]amino}-1-(2,2,2-trifluoroethyl)-1H-indol-2-yl)-1,2,4-oxadiazol-5-yl]methyl}-1H-pyrazole-4-carboxamide]	* (* = 0 μM ≤ SC150 < 0.1 μM)
CCOC1CCCC1n1ccc(C(=O)NCc2nc(-c3cc4c(N[C@@H]5CCN(C)C[C@@H]5F)cccc4n3CC(F)(F)F)no2)c1 (stereo in doubt) [Compound 376B, 1-[(1R,2R)-2-ethoxycyclopentyl]-N-{[3-(4-{[(3S,4R)-3-fluoro-1-methylpiperidin-4-yl]amino}-1-(2,2,2-trifluoroethyl)-1H-indol-2-yl)-1,2,4-oxadiazol-5-yl]methyl}-1H-pyrrole-3-carboxamide]	* (* = 0 μM ≤ SC150 < 0.1 μM)

More lines, now with the values ahead:

Y220C SC150 (μM)	SMILES
* (* = 0 μM ≤ SC150 < 0.1 μM)	CO[C@@]1(C)CC[C@H](n2ccc(C(=O)NCc3nc(-c4cc5c(N[C@@H]6CCN(C)C[C@@H]6F)cccc5n4CC(F)(F)F)no3)c2)C1 (racemic) [Compound 388B]
* (* = 0 μM ≤ SC150 < 0.1 μM)	CN1CC[C@H](F)[C@H](Nc2cccc3c2cc(-c2noc(CNC(=O)c4ccn(C(C)(C)C)c4)n2)n3CC(F)(F)F)C1 (racemic) [Compound 389B, rac-1-tert-butyl-N-{[3-(4-{[(3R,4S)-4-fluoro-1-methylpiperidin-3-yl]amino}-1-(2,2,2-trifluoroethyl)-1H-indol-2-yl)-1,2,4-oxadiazol-5-yl]methyl}-1H-pyrrole-3-carboxamide]
* (* = 0 μM ≤ SC150 < 0.1 μM)	Cn1ccc(C(=O)NCc2nc(-c3cc4c(N[C@@H]5CCN(C(C)(C)C)C[C@H]5F)cccc4n3CC(F)(F)F)no2)c1 (racemic) [Compound 399B, N-{[3-(4-{[(3R,4R)-1-tert-butyl-3-fluoropiperidin-4-yl]amino}-1-(2,2,2-trifluoroethyl)-1H-indol-2-yl)-1,2,4-oxadiazol-5-yl]methyl}-1-methyl-1H-pyrrole-3-carboxamide]
* (* = 0 μM ≤ SC150 < 0.1 μM)	Cn1cc(C(=O)NCc2nc(-c3cc4c(N[C@@H]5CCN(C(C)(C)C)C[C@H]5F)cccc4n3CC(F)(F)F)no2)cn1 (racemic) [Compound 407B, N-{[3-(4-{[(3R,4R)-1-tert-butyl-3-fluoropiperidin-4-yl]amino}-1-(2,2,2-trifluoroethyl)-1H-indol-2-yl)-1,2,4-oxadiazol-5-yl]methyl}-1-methyl-1H-pyrazole-4-carboxamide]
* (* = 0 μM ≤ SC150 < 0.1 μM)	COCC(C)(C)n1cc(C(=O)NCc2nc(-c3cc4c(N[C@H]5CCN(C(C)(C)C)C[C@@H]5F)cccc4n3CC(F)(F)F)no2)cn1 (racemic) [Compound 411B, N-{[3-(4-{[(3R,4R)-1-tert-butyl-3-fluoropiperidin-4-yl]amino}-1-(2,2,2-trifluoroethyl)-1H-indol-2-yl)-1,2,4-oxadiazol-5-yl]methyl}-1-(1-methoxy-2-methylpropan-2-yl)-1H-pyrazole-4-carboxamide]
* (* = 0 μM ≤ SC150 < 0.1 μM)	CO[C@H]1CCCC[C@@H]1n1ccc(C(=O)NCc2nc(-c3cc4c(N[C@@H]5CCN(C)C[C@@H]5F)cccc4n3CC(F)(F)F)no2)c1 (relative stereo) [Compound 384B]
* (* = 0 μM ≤ SC150 < 0.1 μM)	CN1CC[C@@H](Nc2cccc3c2cc(-c2noc(CNC(=O)c4ccn([C@H]5CC[C@@H](N(C)C)C5)c4)n2)n3CC(F)(F)F)[C@@H](F)C1 (stereo in doubt) [Compound 362B, Cis-1-[(1R,3R)-3-(dimethylamino)cyclopentyl]-N-{[3-(4-{[(3S,4R)-3-fluoro-1-methylpiperidin-4-yl]amino}-1-(2,2,2-trifluoroethyl)-1H-indol-2-yl)-1,2,4-oxadiazol-5-yl]methyl}-1H-pyrrole-3-carboxamide]
* (* = 0 μM ≤ SC150 < 0.1 μM)	COC1CCCC1n1ccc(C(=O)NCc2nc(-c3cc4c(N[C@@H]5CCN(C)C[C@@H]5F)cccc4n3CC(F)(F)F)no2)c1 (stereo in doubt) [Compound 364B, N-{[3-(4-{[(3S,4R)-3-fluoro-1-methylpiperidin-4-yl]amino}-1-(2,2,2-trifluoroethyl)-1H-indol-2-yl)-1,2,4-oxadiazol-5-yl]methyl}-1-[(1R,2S)-2-methoxycyclopentyl]-1H-pyrrole-3-carboxamide]
